Laboratory results as given in US11198869B2, “Angelman syndrome antisense treatment” (The Texas A&M University System, priority 2017, dated 2021).

Legend:
Assay type in all cases: cell-based, human
UBE3A = assay: RNA-sequencing of Angelman syndrome iPSC neurons: UBE3A; conditions: 30 μM; six days post-treatment; RNA-seq
Method: (§1) RNA was isolated using Qiagen RNAeasy Plus (74136, Qiagen, Hilden, Germany). RNA concentration was determined using Qubit Fluorometric Quantitation (Thermo Fisher Scientific) and RNA quality was assessed using a 4200 Agilent TapeStation (Agilent, Santa Clara, Calif.). RNA-sequencing libraries were generated using the Illumina TruSeq Stranded Total RNA kit (20020597, Illumina, Inc., San Diego, Calif.) according to the manufacturer's protocol. 75 base-pair paired-end sequencing was performed using a NextSeq 500 (IIlumina, San Diego, Calif.) at the Texas A&M Institute for Genome Sciences and Society Genomics core. Raw sequencing reads were processed using CASAVA. The resulting FASTQ sequences were examined using FASTQC. […]
(§2) To determine whether ASO-4.4.PS.L and ASO-6.1.PO-1.O affect the levels of RNA transcripts encoded by the PWS polycistronic transcript, RNA-sequencing was performed on AS iPS cells treated with each ASO and the steady state RNA levels of SNURF, SNRPN, the SNORD116 host-gene transcript (SNHG116), the SNORD116 snoRNAs, IPW, the SNORD115 host-gene transcript (SNHG115), the SNORD115 snoRNAs, and UBE3A-AS were quantified. UBE3A steady state RNA levels were also measured. […]

IPW = assay: RNA-sequencing of Angelman syndrome iPSC neurons: IPW; conditions: 30 μM, RNA-seq; for Difference, IPW RNA level relative to vehicle: six days post-treatment
Method: RNA was isolated using Qiagen RNAeasy Plus (74136, Qiagen, Hilden, Germany). RNA concentration was determined using Qubit Fluorometric Quantitation (Thermo Fisher Scientific) and RNA quality was assessed using a 4200 Agilent TapeStation (Agilent, Santa Clara, Calif.). RNA-sequencing libraries were generated using the Illumina TruSeq Stranded Total RNA kit (20020597, Illumina, Inc., San Diego, Calif.) according to the manufacturer's protocol. 75 base-pair paired-end sequencing was performed using a NextSeq 500 (IIlumina, San Diego, Calif.) at the Texas A&M Institute for Genome Sciences and Society Genomics core. Raw sequencing reads were processed using CASAVA. The resulting FASTQ sequences were examined using FASTQC.
Angelman syndrome induced pluripotent stem cells derived neurons Angelman syndrome iPS cells (AG1-0 iPSCs) (ECN001, Kerafast, Boston, Mass.) were co-cultured on irradiated murine embryonic fibroblasts in human embryonic stem cell medium [DMEM/F12 (11330-057, Gibco Biosciences, Dublin, Ireland), 20% Knockout Serum Replacement (10828-028, Thermo Fisher Scientific), 1× Non-essential amino acids, 2 mM L-glutamine, […] 2-Mercaptoethanol, and 4 μg/mL basic Fibroblast Growth Factor]. […]
as §2
Normalized FPKM (fragments per […] per million) values of the RefSeq gene annotation will be estimated using Cuffnorm with the default settings and the following option: −u. The FPKM values of each gene annotation was determined for each sample from the output file and used for descriptive and inferential statistics.

UBE3A-AS = assay: RNA-sequencing of Angelman syndrome iPSC neurons: UBE3A-AS; conditions: 30 μM; RNA-seq; relative to vehicle
Method: as §1, §2

Row | Substance | Difference, UBE3A RNA level relative to vehicle (UBE3A) | Difference, IPW RNA level relative to vehicle (IPW) | effect on UBE3A-AS RNA levels (UBE3A-AS) [fold change] | reduction of IPW levels (IPW; effect not significant) [fold]
1 | C^O*U^O*G^O*G^O-t*g*t*c*a*a*c*a*a*g-C^O*C^O*A^O*A^o [ASO-6.1.PO-1.O] | 0.74 | 0.18 | −2.8 | 
2 | A^L*G^L*A^L*a*t*g*g*c*a*c*a*t*c*t*5mC^L*T^L*T^L*G^L (NNNATGGCACATCTNNNN; LNA gapmer, PS, 5-methylcytosine, chemistry not fully specified) [ASO-4.4.PS.L] | 0.90 | −0.49 | −6.1 | 1.5
